Results as given in patent publication US20120214822A1 (ASTRAZENECA AB, priority 2007, published 2012).
Where a name gives a salt, the structure may show the parent alone.

target: human active recombinant p38α-6His tagged (Homo sapiens, UniProt Q16539); test: P38 Alpha Enzyme Assay (AlphaScreen, biotinylated-ATF2 substrate); assay type: biochemical; settings: p38 alpha enzyme inhibition; means of replicate determinations; 4 h pre-incubation at 37° C.; SD of assay 0.2-0.3 log units;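 note: 0.5 nM final p38α, reaction started with ATP and run 45 min at 37 °C, phospho-ATF2 read by antibody-based AlphaScreen, background wells quenched with EDTA before ATP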
Sequence (Q16539 whole entry): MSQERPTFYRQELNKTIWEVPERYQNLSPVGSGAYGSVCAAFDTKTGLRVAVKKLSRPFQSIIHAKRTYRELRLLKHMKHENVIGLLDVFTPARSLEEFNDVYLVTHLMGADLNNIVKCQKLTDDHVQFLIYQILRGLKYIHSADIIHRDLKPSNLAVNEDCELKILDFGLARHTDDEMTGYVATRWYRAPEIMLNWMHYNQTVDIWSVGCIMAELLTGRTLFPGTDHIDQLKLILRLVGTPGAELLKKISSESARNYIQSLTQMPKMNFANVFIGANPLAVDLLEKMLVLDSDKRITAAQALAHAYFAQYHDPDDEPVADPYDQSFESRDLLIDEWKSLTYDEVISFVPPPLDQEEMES

Molecule | pIC50
COc1ccccc1[C@H](Nc1nccn(-c2cc(C(=O)NC3CC3)ccc2C)c1=O)[C@@H](C)CN1CCCC1 [Example 277, N-Cyclopropyl-3-[3-[[(1R,2S)-1-(2-methoxyphenyl)-2-methyl-3-(1-pyrrolidinyl)propyl]amino]-2-oxo-1(2H)-pyrazinyl]-4-methyl-benzamide] | 8.5
Cc1ccc(C(=O)NC2CC2)cc1-n1ccnc(NC(C)(C)c2ccccc2O)c1=O [Example 134, N-Cyclopropyl-3-[3-[[1-(2-hydroxyphenyl)-1-methylethyl]amino]-2-oxo-1(2H)-pyrazinyl]-4-methyl-benzamide] | 8.9
Cc1ccc(C(=O)NC2CC2)cc1-n1ccnc(NCc2ccc(C(C)(C)C)cc2)c1=O [Example 37, N-Cyclopropyl-3-[3-[[[4-(1,1-dimethylethyl)phenyl]methyl]amino]-2-oxo-1(2H)-pyrazinyl]-4-methyl-benzamide] | 6.1
Cc1ccc(C(=O)NC2CC2)cc1-n1ccnc(NC2(c3ccccc3OCCNC(CO)CO)CC2)c1=O [Example 294, N-Cyclopropyl-3-[3-({1-[2-(2-{[2-hydroxy-1-(hydroxymethyl)ethyl]amino}ethoxy)phenyl]cyclopropyl}amino)-2-oxopyrazin-1(2H)-yl]-4-methylbenzamide] | 10
Cc1ccc(C(=O)NC2CC2)cc1-n1ccnc(NC2(c3ccccc3OC[C@H](O)CNCCO)CC2)c1=O [Example 299, N-Cyclopropyl-3-[3-({1-[2-({(2R)-2-hydroxy-3-[(2-hydroxyethyl)amino]propyl}oxy)phenyl]cyclopropyl}amino)-2-oxopyrazin-1(2H)-yl]-4-methylbenzamide] | 10
CONC(=O)c1ccc(C)c(-n2ccnc(N[C@@H](c3ccccc3)[C@@H](C)CO)c2=O)c1 [Example 162, 3-[3-[[(1R,2R)-3-Hydroxy-2-methyl-1-phenylpropyl]amino]-2-oxo-1(2H)-pyrazinyl]-N-methoxy-4-methyl-benzamide, trifluoroacetate] | 9.4
CNCCOc1ccccc1C1(Nc2nccn(-c3cc(C(=O)NC4CC4)c(F)cc3C)c2=O)CC1 [Example 319, N-Cyclopropyl-2-fluoro-4-methyl-5-{3-[(1-{2-[2-(methylamino)ethoxy]phenyl}cyclopropyl)amino]-2-oxopyrazin-1(2H)-yl}benzamide] | 8.1
Cc1ccc(C(=O)NC2CC2)cc1-n1ccnc(N2CCCC2Cc2ccccc2F)c1=O (centres unmarked) [Example 75, N-Cyclopropyl-3-[3-[2-[(2-fluorophenyl)methyl]-1-pyrrolidinyl]-2-oxo-1(2H)-pyrazinyl]-4-methyl-benzamide] | 7.1
COCCNCCOc1ccccc1C1(Nc2nccn(-c3cc(C(=O)NC4CC4)ccc3C)c2=O)CC1 [Example 231, N-Cyclopropyl-3-[3-[[1-[2-[2-[(2-methoxyethyl)amino]ethoxy]phenyl]cyclopropyl]amino]-2-oxo-1(2H)-pyrazinyl]-4-methyl-benzamide] | 9.9
Cc1ccc(C(=O)NC2CC2)cc1-n1ccnc(NC2(c3ccccc3OC[C@@H](O)CNCCO)CC2)c1=O [Example 302, N-Cyclopropyl-3-[3-({1-[2-({(2S)-2-hydroxy-3-[(2-hydroxyethyl)amino]propyl}oxy)phenyl]cyclopropyl}amino)-2-oxopyrazin-1(2H)-yl]-4-methylbenzamide] | 10
Cc1ccc(C(=O)NC2CC2)cc1-n1ccnc(N[C@@H](CO)c2ccccc2)c1=O [Example 81, N-Cyclopropyl-3-[3-[[(1R)-2-hydroxy-1-phenylethyl]amino]-2-oxo-1(2H)-pyrazinyl]-4-methyl-benzamide] | 6.3
CCNCCOc1ccccc1C(C)(C)Nc1nccn(-c2cc(C(=O)NC3CC3)ccc2C)c1=O [Example 198, N-Cyclopropyl-3-[3-[[1-[2-[2-(ethylamino)ethoxy]phenyl]-1-methylethyl]amino]-2-oxo-1(2H)-pyrazinyl]-4-methyl-benzamide] | 9.6
Cc1ccc(C(=O)NC2CC2)cc1-n1ccnc(NC2(c3ccccc3OCCN3CCNCC3)CC2)c1=O [Example 243, N-Cyclopropyl-4-methyl-3-[2-oxo-3-[[1-[2-[2-(1-piperazinyl)ethoxy]phenyl]cyclopropyl]amino]-1(2H)-pyrazinyl]-benzamide] | 9.4
CCNCCOc1ccccc1C(C)(C)Nc1nccn(-c2cc(C(=O)NC3CC3)ccc2Cl)c1=O [Example 333, 4-Chloro-N-cyclopropyl-3-[3-[(1-{2-[2-(ethylamino)ethoxy]phenyl}-1-methylethyl)amino]-2-oxopyrazin-1(2H)-yl]benzamide] | 9.5
Cc1ccc(C(=O)NC2CC2)cc1-n1ccnc(Sc2ccccc2)c1=O [Example 117, N-Cyclopropyl-4-methyl-3-[2-oxo-3-(phenylthio)-1(2H)-pyrazinyl]-benzamide] | 6.8
Cc1ccc(C(=O)NC2CC2)cc1-n1ccnc(NC(C)(C)c2ccccc2OC[C@H](N)CO)c1=O [Example 305, 3-[3-{[1-(2-{[(2R)-2-Amino-3-hydroxypropyl]oxy}phenyl)-1-methylethyl]amino}-2-oxopyrazin-1(2H)-yl]-N-cyclopropyl-4-methylbenzamide] | 9.9

Molecule | pIC50
Cc1c(F)cc(C(=O)NC2CC2)cc1-n1ccnc(N[C@@H](c2ccccc2)[C@@H](C)CN2CCCC2)c1=O [Example 328, N-Cyclopropyl-3-fluoro-4-methyl-5-[3-{[(1R,2S)-2-methyl-1-phenyl-3-pyrrolidin-1-ylpropyl]amino}-2-oxopyrazin-1(2H)-yl]benzamide] | 9
Cc1ccc(C(=O)NC2CC2)cc1-n1ccnc(NCCc2ccc(O)cc2)c1=O [Example 70, N-Cyclopropyl-3-[3-[[2-(4-hydroxyphenyl)ethyl]amino]-2-oxo-1(2H)-pyrazinyl]-4-methyl-benzamide] | 6.8
CNCCOc1ccccc1C(C)(C)Nc1nccn(-c2cc(C(=O)NC3(C)CC3)ccc2C)c1=O [Example 227, 4-Methyl-N-(1-methylcyclopropyl)-3-[3-[[1-methyl-1-[2-[2-(methylamino)ethoxy]phenyl]ethyl]amino]-2-oxo-1(2H)-pyrazinyl]-benzamide] | 8.5
Cc1ccc(C(=O)NC2CC2)cc1-n1ccnc(N(C)CCc2ccccc2)c1=O [Example 66, N-Cyclopropyl-4-methyl-3-[3-[methyl(2-phenylethyl)amino]-2-oxo-1(2H)-pyrazinyl]benzamide] | 6.5
Cc1ccc(C(=O)NC2CC2)cc1-n1ccnc(NC(C)(C)c2ccccc2OCCCN2CCN(C)CC2)c1=O [Example 208, N-Cyclopropyl-4-methyl-3-[3-[[1-methyl-1-[2-[3-(4-methyl-1-piperazinyl)propoxy]phenyl]ethyl]amino]-2-oxo-1(2H)-pyrazinyl]-benzamide] | 9.1
COC[C@@H]1CCCN1C[C@@H](C)[C@@H](Nc1nccn(-c2cc(C(=O)NC3CC3)ccc2C)c1=O)c1ccccc1 [Example 150, N-Cyclopropyl-3-[3-[[(1R,2R)-3-[(2S)-2-(methoxymethyl)-1-pyrrolidinyl]-2-methyl-1-phenylpropyl]amino]-2-oxo-1(2H)-pyrazinyl]-4-methyl-benzamide] | 7.9
CNC[C@H](O)COc1ccccc1C(C)(C)Nc1nccn(-c2cc(C(=O)NC3CC3)cc(F)c2C)c1=O [Example 310, N-Cyclopropyl-3-fluoro-5-[3-{[1-(2-{[(2S)-2-hydroxy-3-(methylamino)propyl]oxy}phenyl)-1-methylethyl]amino}-2-oxopyrazin-1(2H)-yl]-4-methylbenzamide] | 10
Cc1ccc(C(=O)NC2CC2)cc1-n1ccnc(N2CCCCC2)c1=O [Example 76, N-Cyclopropyl-4-methyl-3-[2-oxo-3-(1-pipendinyl)-1(2H)-pyrazinyl]-benzamide] | 6.8
CCNCCOc1ccccc1C(C)(C)Nc1nccn(-c2cc(C(=O)NC3CC3)ccc2CC)c1=O [Example 290, N-Cyclopropyl-4-ethyl-3-{3-[(1-{2-[2-(ethylamino)ethoxy]phenyl}-1-methylethyl)amino]-2-oxopyrazin-1(2H)-yl}benzamide] | 8.5
Cc1ccc(C(=O)NC2CC2)cc1-n1ccnc(NC2(c3ccccc3OCCNCCCO)CC2)c1=O [Example 250, N-Cyclopropyl-3-[3-[[1-[2-[2-[(3-hydroxypropyl)amino]ethoxy]phenyl]cyclopropyl]amino]-2-oxo-1(2H)-pyrazinyl]-4-methyl-benzamide] | 9.7
Cc1cccc([C@H](Nc2nccn(-c3cc(C(=O)NC4CC4)ccc3C)c2=O)[C@@H](C)CO)c1 [Example 273, N-Cyclopropyl-3-[3-[[(1R,2R)-3-hydroxy-1-(3-methylphenyl)-2-methylpropyl]amino]-2-oxo-1(2H)-pyrazinyl]-4-methyl-benzamide] | 9
Cc1ccc(C(=O)NC2CC2)cc1-n1ccnc(NC2(c3cccc(F)c3OCCN)CC2)c1=O [Example 284, 3-[3-({1-[2-(2-Aminoethoxy)-3-fluorophenyl]cyclopropyl}amino)-2-oxopyrazin-1(2H)-yl]-N-cyclopropyl-4-methylbenzamide] | 9.5
4-Methyl-3-[3-[[[4-(4-methyl-1-piperazinyl)phenyl]methyl]amino]-2-oxo-1(2H)-pyrazinyl]-N-(1-methylpropyl)-benzamide [Example 14] | 6
Cc1ccc(C(=O)NC2CC2)cc1-n1ccnc(N[C@@H]2CCc3ccccc32)c1=O [Example 17, N-Cyclopropyl-3-[3-[[(1R)-2,3-dihydro-1H-inden-1-yl]amino]-2-oxo-1(2H)-pyrazinyl]-4-methyl-benzamide] | 6.6
CONC(=O)c1ccc(C)c(-n2ccnc(NCc3ccccc3CN3CCN(C)CC3)c2=O)c1 [Example 111, N-Methoxy-4-methyl-3-[3-[[[2-[(4-methyl-1-piperazinyl)methyl]phenyl]methyl]amino]-2-oxo-1(2H)-pyrazinyl]-benzamide] | 7.1
Cc1ccc(C(=O)NC2CC2)cc1-n1ccnc(Oc2ccccc2)c1=O [Example 116, N-Cyclopropyl-4-methyl-3-(2-oxo-3-phenoxy-1(2H)-pyrazinyl)-benzamide] | 6.4
